# Laboratory results taken from US11891403B2, “Tetrazole derivatives as TRPA1 inhibitors” (Boehringer Ingelheim International GmbH, priority 2020, dated 2024).
# Tests used:
# human TRPA1 ion channel = target: T1, human TRPA1 ion channel (Homo sapiens, UniProt O75762); assay: Assay A: TRPA1 assay (FLIPRtetra, AITC-induced intracellular calcium); type: cell-based; details: HEK293 cell line over-expressing human TRPA1, AITC agonism (final 10 μM), AUC of calcium signal, read-out: hTRPA1 IC50
# T1 construct: host or cells: HEK293
# T1 sequence (O75762 whole entry): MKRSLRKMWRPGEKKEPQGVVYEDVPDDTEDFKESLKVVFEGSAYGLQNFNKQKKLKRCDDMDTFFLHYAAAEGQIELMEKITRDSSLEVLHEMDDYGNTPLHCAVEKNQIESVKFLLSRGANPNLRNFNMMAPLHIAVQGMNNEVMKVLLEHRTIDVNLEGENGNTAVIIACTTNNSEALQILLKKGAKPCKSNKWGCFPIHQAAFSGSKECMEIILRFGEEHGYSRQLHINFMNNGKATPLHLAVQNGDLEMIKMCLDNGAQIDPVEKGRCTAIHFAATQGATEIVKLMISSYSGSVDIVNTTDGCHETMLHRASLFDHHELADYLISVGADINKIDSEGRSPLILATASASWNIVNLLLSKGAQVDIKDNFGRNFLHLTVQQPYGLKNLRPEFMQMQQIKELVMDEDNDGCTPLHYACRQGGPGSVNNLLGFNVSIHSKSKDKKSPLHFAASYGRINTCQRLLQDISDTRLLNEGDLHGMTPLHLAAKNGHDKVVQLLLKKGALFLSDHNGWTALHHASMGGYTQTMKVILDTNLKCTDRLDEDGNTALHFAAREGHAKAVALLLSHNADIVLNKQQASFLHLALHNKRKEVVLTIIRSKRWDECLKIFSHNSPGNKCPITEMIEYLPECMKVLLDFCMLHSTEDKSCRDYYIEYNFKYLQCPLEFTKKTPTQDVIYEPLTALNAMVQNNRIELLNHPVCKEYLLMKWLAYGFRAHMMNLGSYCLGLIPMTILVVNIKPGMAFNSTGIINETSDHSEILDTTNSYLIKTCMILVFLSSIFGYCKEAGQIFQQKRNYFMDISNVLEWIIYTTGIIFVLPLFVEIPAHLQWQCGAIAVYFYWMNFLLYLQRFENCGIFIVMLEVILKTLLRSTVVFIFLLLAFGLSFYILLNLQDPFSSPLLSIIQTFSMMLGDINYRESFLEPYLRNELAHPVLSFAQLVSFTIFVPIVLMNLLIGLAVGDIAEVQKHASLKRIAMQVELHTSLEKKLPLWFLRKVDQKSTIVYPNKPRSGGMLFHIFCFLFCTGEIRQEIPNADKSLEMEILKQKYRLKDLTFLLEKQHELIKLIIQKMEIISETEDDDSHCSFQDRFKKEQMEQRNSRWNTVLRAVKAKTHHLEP
# Description: A human HEK293 cell line over-expressing the human TRPA1 ion channel (Perkin Elmer, Product No. AX-004-PCL) is used as a test system for compound efficacy and potency. Compound activity is determined by measuring the effect of compounds on intracellular calcium concentration induced by AITC (Allylisothiocyanat) agonism in a FLIPRtetra system (Molecular Devices).
# The cells are obtained as frozen cells in cryo-vials and stored until use at −150° C.
# Cells are grown in culture medium (MEM/EBSS medium with 10% FCS and 0.4 mg/ML Geneticin). […] For sub-culturing cells are detached from flasks by Versene. At the day before the assay, cells are detached, washed twice with medium (MEM/EBSS medium with 10% FCS) and 20000 cells in 20 μl/well are seeded to Poly D-Lysin biocoated 384-well plates (black, clear bottom, Cat. 356697) from Corning. Plates are incubated for 24 hours at 37° C./5% C02 before use in the assay.
# The test compounds are dissolved in 100% DMSO at a concentration of 10 mM and in a first step diluted in DMSO to a concentration of 5 mM, followed by serial dilution steps in 100% DMSO. Dilution factor and number of dilution steps may vary according to needs. Typically 8 different concentrations by 1:5 dilutions are prepared, further intermediate dilutions (1:20) of the substances are carried out with HBSS/HEPES buffer (1×HEPES, Cat. 14065 from Gibco, 20 mM HEPES, Cat. 83264 from SIGMA, 0.1% BSA Cat. 11926 from Invitrogen, pH 7.4
# At the assay day cells are washed 3× with assay puffer, 20 μL buffer remaining in the wells after washing. 10 μL Ca6 kit (Cat. R8191 Molecular Devices) loading buffer in HBSS/HEPES is added to the cells and the plates are incubated with lid for 120 minutes at 37°/5% CO2. 10 μL of compound or controls in HBSS/HEPES buffer/5% DMSO from the intermediate dilution plate are carefully added to the wells. […] Finally 10 μL of the agonist AITC 50 μM dissolved in HBSS/HEPES buffer/0.05% DMSO (final concentration 10 μM) is added to the wells followed by an additional read on the FLIPRtetra device for 10 minutes. The area under the signal curve (AUC) after AITC addition is used for IC50/% inhibition calculations
# Data Evaluation and Calculation:
# Each assay microtiter plate contains wells with vehicle (1% DMSO) controls instead of compound as controls for AITC induced luminescence (100% CTL; high controls) and is wells with vehicle controls without AITC as controls for non-specific changes in luminescence (0% CTL; low controls).
# The analysis of the data is performed by the calculation of the area under signal curve of the individual wells. Based on this values the % value for the measurement of each substance concentration is calculated (AUC(sample)−AUC(low))*100/(AUC(high)−AUC(low)) using MegaLab software (in house development). The IC50 values are calculated from the % control values using MegaLab software. Calculation: [y=(ad)/(1+(x/c)^b)+d], a=low value, d=high value; x=conc M; c=IC50 M; b=hill; y=% ctrl
# [1] = Assay B: Microsomal clearance; type: in vitro ADME, human; details: pooled liver microsomes 1 mg/ml, test compound 1 μM, 37° C., NADPH; clearance as % of hepatic blood flow
# Description: Assay B: Microsomal Clearance:
# The metabolic degradation of the test compound is assayed at 37° C. with pooled liver microsomes. The final incubation volume of 100 μl per time point contains TRIS buffer pH 7.6 at RT (0.1 M), magnesium chloride (5 mM), microsomal protein (1 mg/ml) and the test compound at a final concentration of 1 μM.
# Following a short preincubation period at 37° C., the reactions are initiated by addition of beta-nicotinamide adenine dinucleotide phosphate, reduced form (NADPH, 1 mM) and terminated by transferring an aliquot into solvent after different time points (0, 5, 15, 30, 60 min). Additionally, the NADPH-independent degradation is monitored in incubations without NADPH, terminated at the last time point. The [%] remaining test compound after NADPH independent incubation is reflected by the parameter c (control) (metabolic stability). The quenched incubations are pelleted by centrifugation (10000 g, 5 min).
# An aliquot of the supernatant is assayed by LC-MS/MS for the amount of parent compound. The half-life (t½ INVITRO) is determined by the slope of the semilogarithmic plot of the concentration-time profile.
# The intrinsic clearance (CL_[…]) is calculated by considering the amount of protein in the incubation: CL_[…] [μl/min/mg protein]=(Ln 2/(half-life [min]*protein content [mg/ml]))*1000 CL_[…]_INVIVO [ml/min/kg]=(CL_[…] [μL/min/mg protein]×MPPGL [mg protein/g liver]×liver factor [g/kg bodyweight])/1000 Qh [%]=CL [ml/min/kg]/hepatic blood flow [ml/min/kg])
# (§1) Hepatocellularity, human: 120×10e6 cells/g liver
# (§2) Liver factor, human: 25.7 g/kg bodyweight
# (§3) Blood flow, human: 21 ml/(min×kg)
# [2] = Assay C: Hepatocyte clearance; type: in vitro ADME, human; details: cryopreserved hepatocyte suspension, test compound 1 μM, up to 6 h; predicted clearance as % of hepatic blood flow
# Description: Assay C: Hepatocyte Clearance
# The metabolic degradation of the test compound is assayed in a hepatocyte suspension. Hepatocytes (cryopreserved) are incubated in Dulbecco's modified eagle medium (supplemented with 3.5 μg glucagon/500 mL, 2.5 mg insulin/500 mL and 3.75 mg/500 mL hydrocortison) containing 5% or 50% species serum.
# The cells are incubated for six hours (incubator, orbital shaker) and samples (25 μl) are taken at 0, 0.5, 1, 2, 4 and 6 hours. Samples are transferred into acetonitrile and pelleted by centrifugation (5 min). The supernatant is transferred to a new 96-deepwell plate, evaporated under nitrogen and resuspended.
# Decline of parent compound is analyzed by HPLC-MS/MS
# CLint is calculated as follows CL_[…]=Dose/AUC=(CO/CD)/(AUD+clast/k)×1000/60. CO: initial concentration in the incubation [P M], CD: cell density of vital cells [10e6 cells/mL], AUD: area under the data [μM×h], clast: concentration of last data point [μM], k: slope of the regression line for parent decline [h−1].
# The calculated in vitro hepatic intrinsic clearance can be scaled up to the intrinsic in vivo hepatic Clearance and used to predict hepatic in vivo blood clearance (CL) by the use of a liver model (well stirred model). CL_[…]_INVIVO [ml/min/kg]=(CL_[…] [μL/min/10e6 cells]×hepatocellularity [10e6 cells/g liver]×liver factor [g/kg bodyweight])/1000 CL [ml/min/kg]=CL_[…]_INVIVO [ml/min/kg]×hepatic blood flow [ml/min/kg]/(CL_[…]_INVIVO [ml/min/kg]+hepatic blood flow [ml/min/kg]) Qh [%]=CL [ml/min/kg]/hepatic blood flow [ml/min/kg])
# as §1, §2, §3
IC50 (human TRPA1 ion channel) [nM],human LM [% Qh] [1] [% Qh],human Hepatocytes [% Qh] [2] [% Qh],SMILES
15,<23,16,CN1C(=O)COc2ncn(Cc3nnn(C[C@H](O)c4cc5ccc(F)cc5s4)n3)c(=O)c21 [Example 2]
23,<23,18,CN1C(=O)COc2ncn(Cc3nnn(C[C@H](O)c4cc5ccccc5s4)n3)c(=O)c21 [Example 3]
32,<23,31,CN1C(=O)COc2ncn(Cc3nnn(C[C@H](O)c4cc5cc(Cl)ccc5o4)n3)c(=O)c21 [Example 4]
39,<23,29,CN1C(=O)COc2ncn(Cc3nnn(C[C@H](O)c4cc(Cl)c(Cl)s4)n3)c(=O)c21 [Example 5]
45,<23,13,CN1C(=O)COc2ncn(Cc3nnn(C[C@H](O)c4cc5cc(F)ccc5o4)n3)c(=O)c21 [Example 6]
60,<23,21,CN1C(=O)COc2ncn(Cc3nnn(C[C@H](O)c4cc5cc(F)c(F)cc5o4)n3)c(=O)c21 [Example 7]
62,<23,11,CN1C(=O)COc2ncn(Cc3nnn(C[C@H](O)c4ccc(Br)cc4)n3)c(=O)c21 [Example 8]
73,<23,5,Cc1ccc([C@@H](O)Cn2nnc(Cn3cnc4c(c3=O)N(C)C(=O)CO4)n2)cc1 [Example 9]
80,<23,<4,CN1C(=O)COc2ncn(Cc3nnn(C[C@H](O)c4ccc(Cl)s4)n3)c(=O)c21 [Example 10]
81,34,29,CN1C(=O)COc2ncn(Cc3nnn(C[C@H](O)c4cc5cc(Cl)c(F)cc5o4)n3)c(=O)c21 [Example 11]
115,<23,8,CN1C(=O)COc2ncn(Cc3nnn(C[C@H](O)c4cc5ccccc5o4)n3)c(=O)c21 [Example 12]
145,<23,10,CN1C(=O)COc2ncn(Cc3nnn(C[C@H](O)c4cc5ccc(F)cc5o4)n3)c(=O)c21 [Example 13]
191,<23,5,CN1C(=O)COc2ncn(Cc3nnn(C[C@H](O)c4ccc5c(c4)OCO5)n3)c(=O)c21 [Example 14]
227,26,29,CN1C(=O)COc2ncn(Cc3nnn(C[C@H](O)c4cc5cc(F)c(Cl)cc5o4)n3)c(=O)c21 [Example 15]
237,<23,<4,CN1C(=O)COc2ncn(Cc3nnn(C[C@H](O)c4ccc(C#N)s4)n3)c(=O)c21 [Example 16]
248,<23,13,COc1ccc([C@@H](O)Cn2nnc(Cn3cnc4c(c3=O)N(C)C(=O)CO4)n2)cc1 [Example 17]
153,<23,8,CN1C(=O)COc2ncn(Cc3nnn(C[C@H](O)c4cc5cccc(F)c5o4)n3)c(=O)c21 [Example 18]
214,<23,19,CN1C(=O)COc2ncn(Cc3nnn(C[C@H](O)c4ccc5cc(C#N)oc5c4)n3)c(=O)c21 [Example 19]
140,<23,<4,CN1C(=O)CCc2ncn(Cc3nnn(C[C@H](O)c4ccc(Cl)cc4)n3)c(=O)c21 [Example 20]
155,<23,6,CN1C(=O)CSc2ncn(Cc3nnn(C[C@H](O)c4ccc(Cl)cc4)n3)c(=O)c21 [Example 21]
74,35,12,CN1C(=O)C(F)(F)Oc2ncn(Cc3nnn(C[C@H](O)c4ccc(Cl)cc4)n3)c(=O)c21 [Example 22]
52,25,36,C[C@H]1Oc2ncn(Cc3nnn(C[C@H](O)c4ccc(Cl)cc4)n3)c(=O)c2N(C)C1=O [Example 23]
100,<23,16,C[C@@H]1Oc2ncn(Cc3nnn(C[C@H](O)c4ccc(Cl)cc4)n3)c(=O)c2N(C)C1=O [Example 24]

SMILES,IC50 (human TRPA1 ion channel) [nM],human LM [% Qh] [1] [% Qh],human Hepatocytes [% Qh] [2] [% Qh]
"CN1C(=O)COc2ncn(Cc3nnn(C[C@H](O)c4ccc(Cl)cc4)n3)c(=O)c21 [Example 1, 3-({2-[(2R)-2-(4-chlorophenyl)-2-hydroxyethyl]-2H-1,2,3,4-tetrazol-5-yl}methyl)-5-methyl-3H,4H,5H,6H,7H-pyrimido[4,5-b][1,4]oxazine-4,6-dione]",53,<23,7
